# Biological target: MCH receptor (Homo sapiens, UniProt Q99705)
# Assay: High throughput functional screening FLIPR/FDSS6000: inhibition of MCH-evoked intracellular Ca2+ changes
# Format: cell-based
# Settings: class by percent of control at 10^-7 M or IC50
# Procedure, shortened: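 Antagonism is measured as inhibition of the intracellular calcium rise triggered by 50 nM MCH in cells bearing a constitutively active, non-endogenous form of the receptor. Cells are dye-loaded with Fluo4-AM and exposed to compound for 3 min at 37° C before agonist addition.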
row,Compound,class
1,CN(C)c1nc(N[C@H]2CC[C@@H](CNC(=S)NCc3cccc4ccccc34)CC2)nc2ccccc12 [compound 713],3 (Class 3: The value of percent of control at 10^−7 M was more than 60% or the value of IC50 was more than 200 nM.)
2,CN(C)c1nc(N[C@H]2CC[C@@H](CNC(=S)NCC(c3ccccc3)c3ccccc3)CC2)nc2ccccc12 [compound 714],3 (Class 3: The value of percent of control at 10^−7 M was more than 60% or the value of IC50 was more than 200 nM.)
3,CN(C)c1nc(N[C@H]2CC[C@@H](CNC(=S)Nc3c(Cl)c(Cl)cc(Cl)c3Cl)CC2)nc2ccccc12 [compound 715],1 (Class 1: The value of percent of control at 10^−7 M was less than 40% or the value of IC50 was less than 50 nM.)
4,COc1cccc(CNC(=S)NC[C@H]2CC[C@@H](Nc3nc(N(C)C)c4ccccc4n3)CC2)c1OC [compound 716],2 (Class 2: The value of percent of control at 10^−7 M was from 40% to 60% or the value of IC50 was from 50 nM to 200 nM.)
5,Cc1cc(C)c(NC(=S)NC[C@H]2CC[C@@H](Nc3nc(N(C)C)c4ccccc4n3)CC2)cc1C [compound 717],3 (Class 3: The value of percent of control at 10^−7 M was more than 60% or the value of IC50 was more than 200 nM.)
6,CN(C)c1nc(N[C@H]2CC[C@@H](CNC(=S)NCc3ccc(Cl)cc3Cl)CC2)nc2ccccc12 [compound 718],2 (Class 2: The value of percent of control at 10^−7 M was from 40% to 60% or the value of IC50 was from 50 nM to 200 nM.)
7,CN(C)c1nc(N[C@H]2CC[C@@H](CNC(=S)Nc3cc(Br)ccc3Br)CC2)nc2ccccc12 [compound 719],3 (Class 3: The value of percent of control at 10^−7 M was more than 60% or the value of IC50 was more than 200 nM.)
8,COc1ccc(OC)c(CCNC(=S)NC[C@H]2CC[C@@H](Nc3nc(N(C)C)c4ccccc4n3)CC2)c1 [compound 720],3 (Class 3: The value of percent of control at 10^−7 M was more than 60% or the value of IC50 was more than 200 nM.)
9,CN(C)c1nc(N[C@H]2CC[C@@H](CNC(=S)Nc3ccccc3-c3ccccc3)CC2)nc2ccccc12 [compound 721],3 (Class 3: The value of percent of control at 10^−7 M was more than 60% or the value of IC50 was more than 200 nM.)
10,CN(C)c1nc(N[C@H]2CC[C@@H](CNC(=S)Nc3cc([N+](=O)[O-])ccc3Cl)CC2)nc2ccccc12 [compound 722],3 (Class 3: The value of percent of control at 10^−7 M was more than 60% or the value of IC50 was more than 200 nM.)
11,CN(C)c1nc(N[C@H]2CC[C@@H](CNC(=S)Nc3ccccc3C#N)CC2)nc2ccccc12 [compound 723],3 (Class 3: The value of percent of control at 10^−7 M was more than 60% or the value of IC50 was more than 200 nM.)
12,CN(C)c1nc(N[C@H]2CC[C@@H](CNC(=S)NCc3ccccc3F)CC2)nc2ccccc12 [compound 724],3 (Class 3: The value of percent of control at 10^−7 M was more than 60% or the value of IC50 was more than 200 nM.)
13,COc1ccc([N+](=O)[O-])cc1NC(=S)NC[C@H]1CC[C@@H](Nc2nc(N(C)C)c3ccccc3n2)CC1 [compound 725],2 (Class 2: The value of percent of control at 10^−7 M was from 40% to 60% or the value of IC50 was from 50 nM to 200 nM.)
14,Cc1cc([N+](=O)[O-])ccc1NC(=S)NC[C@H]1CC[C@@H](Nc2nc(N(C)C)c3ccccc3n2)CC1 [compound 726],3 (Class 3: The value of percent of control at 10^−7 M was more than 60% or the value of IC50 was more than 200 nM.)
15,Cc1ccccc1CNC(=S)NC[C@H]1CC[C@@H](Nc2nc(N(C)C)c3ccccc3n2)CC1 [compound 727],3 (Class 3: The value of percent of control at 10^−7 M was more than 60% or the value of IC50 was more than 200 nM.)
16,COc1ccc(CNC(=S)NC[C@H]2CC[C@@H](Nc3nc(N(C)C)c4ccccc4n3)CC2)cc1OC [compound 728],3 (Class 3: The value of percent of control at 10^−7 M was more than 60% or the value of IC50 was more than 200 nM.)
17,CN(C)c1nc(N[C@H]2CC[C@@H](CNC(=S)NCc3cccc(Cl)c3)CC2)nc2ccccc12 [compound 729],3 (Class 3: The value of percent of control at 10^−7 M was more than 60% or the value of IC50 was more than 200 nM.)
18,CCOC(=O)c1cccc(NC(=S)NC[C@H]2CC[C@@H](Nc3nc(N(C)C)c4ccccc4n3)CC2)c1 [compound 730],3 (Class 3: The value of percent of control at 10^−7 M was more than 60% or the value of IC50 was more than 200 nM.)
19,CCc1cccc(NC(=S)NC[C@H]2CC[C@@H](Nc3nc(N(C)C)c4ccccc4n3)CC2)c1 [compound 731],3 (Class 3: The value of percent of control at 10^−7 M was more than 60% or the value of IC50 was more than 200 nM.)
20,CN(C)c1nc(N[C@H]2CC[C@@H](CNC(=S)NCc3cccc(F)c3)CC2)nc2ccccc12 [compound 732],3 (Class 3: The value of percent of control at 10^−7 M was more than 60% or the value of IC50 was more than 200 nM.)

row,Compound,class
1,COc1cccc(CNC(=S)NC[C@H]2CC[C@@H](Nc3nc(N(C)C)c4ccccc4n3)CC2)c1 [compound 733],3 (Class 3: The value of percent of control at 10^−7 M was more than 60% or the value of IC50 was more than 200 nM.)
2,Cc1cccc(CNC(=S)NC[C@H]2CC[C@@H](Nc3nc(N(C)C)c4ccccc4n3)CC2)c1 [compound 734],3 (Class 3: The value of percent of control at 10^−7 M was more than 60% or the value of IC50 was more than 200 nM.)
3,CN(C)c1nc(N[C@H]2CC[C@@H](CNC(=S)Nc3ccc(Br)c(Cl)c3)CC2)nc2ccccc12 [compound 735],3 (Class 3: The value of percent of control at 10^−7 M was more than 60% or the value of IC50 was more than 200 nM.)
4,Cc1cc(NC(=S)NC[C@H]2CC[C@@H](Nc3nc(N(C)C)c4ccccc4n3)CC2)ccc1Br [compound 736],3 (Class 3: The value of percent of control at 10^−7 M was more than 60% or the value of IC50 was more than 200 nM.)
5,CN(C)c1nc(N[C@H]2CC[C@@H](CNC(=S)Nc3ccc(Cl)cc3C(F)(F)F)CC2)nc2ccccc12 [compound 737],3 (Class 3: The value of percent of control at 10^−7 M was more than 60% or the value of IC50 was more than 200 nM.)
6,CCCCCCCCCCc1ccc(NC(=S)NC[C@H]2CC[C@@H](Nc3nc(N(C)C)c4ccccc4n3)CC2)cc1 [compound 738],3 (Class 3: The value of percent of control at 10^−7 M was more than 60% or the value of IC50 was more than 200 nM.)
7,Cc1cc(F)ccc1NC(=S)NC[C@H]1CC[C@@H](Nc2nc(N(C)C)c3ccccc3n2)CC1 [compound 739],3 (Class 3: The value of percent of control at 10^−7 M was more than 60% or the value of IC50 was more than 200 nM.)
8,CN(C)c1nc(N[C@H]2CC[C@@H](CNC(=S)Nc3ccc(Oc4ccc([N+](=O)[O-])cc4)cc3)CC2)nc2ccccc12 [compound 740],3 (Class 3: The value of percent of control at 10^−7 M was more than 60% or the value of IC50 was more than 200 nM.)
9,CN(C)c1nc(N[C@H]2CC[C@@H](CNC(=S)Nc3ccc(Sc4ccc([N+](=O)[O-])cc4)cc3)CC2)nc2ccccc12 [compound 741],3 (Class 3: The value of percent of control at 10^−7 M was more than 60% or the value of IC50 was more than 200 nM.)
10,CN(C)c1nc(N[C@H]2CC[C@@H](CNC(=S)Nc3ccc(S(N)(=O)=O)cc3)CC2)nc2ccccc12 [compound 742],3 (Class 3: The value of percent of control at 10^−7 M was more than 60% or the value of IC50 was more than 200 nM.)
11,COc1ccc(NC(=S)NC[C@H]2CC[C@@H](Nc3nc(N(C)C)c4ccccc4n3)CC2)c(C)c1 [compound 743],2 (Class 2: The value of percent of control at 10^−7 M was from 40% to 60% or the value of IC50 was from 50 nM to 200 nM.)
12,Cc1ccc(CCNC(=S)NC[C@H]2CC[C@@H](Nc3nc(N(C)C)c4ccccc4n3)CC2)cc1 [compound 744],3 (Class 3: The value of percent of control at 10^−7 M was more than 60% or the value of IC50 was more than 200 nM.)
13,CN(C)c1nc(N[C@H]2CC[C@@H](CNC(=S)Nc3ccc(Oc4ccccc4)cc3)CC2)nc2ccccc12 [compound 745],3 (Class 3: The value of percent of control at 10^−7 M was more than 60% or the value of IC50 was more than 200 nM.)
14,COc1cc(OC)c(NC(=S)NC[C@H]2CC[C@@H](Nc3nc(N(C)C)c4ccccc4n3)CC2)cc1Cl [compound 746],3 (Class 3: The value of percent of control at 10^−7 M was more than 60% or the value of IC50 was more than 200 nM.)
15,CN(C)c1nc(N[C@H]2CC[C@@H](CNC(=S)Nc3ccc4c(c3)CCC4)CC2)nc2ccccc12 [compound 747],3 (Class 3: The value of percent of control at 10^−7 M was more than 60% or the value of IC50 was more than 200 nM.)
16,CN(C)c1nc(N[C@H]2CC[C@@H](CNC(=S)NC3CCCCCC3)CC2)nc2ccccc12 [compound 748],3 (Class 3: The value of percent of control at 10^−7 M was more than 60% or the value of IC50 was more than 200 nM.)
17,C[C@@H](NC(=S)NC[C@H]1CC[C@@H](Nc2nc(N(C)C)c3ccccc3n2)CC1)c1ccccc1 [compound 749],3 (Class 3: The value of percent of control at 10^−7 M was more than 60% or the value of IC50 was more than 200 nM.)
18,CCCCOC(=O)c1ccccc1NC(=O)NC[C@H]1CC[C@@H](Nc2nc(N(C)C)c3ccccc3n2)CC1 [compound 750],3 (Class 3: The value of percent of control at 10^−7 M was more than 60% or the value of IC50 was more than 200 nM.)
19,COC(=O)c1cc(NC(=O)NC[C@H]2CC[C@@H](Nc3nc(N(C)C)c4ccccc4n3)CC2)cc(C(=O)OC)c1 [compound 751],3 (Class 3: The value of percent of control at 10^−7 M was more than 60% or the value of IC50 was more than 200 nM.)
20,CN(C)c1nc(N[C@H]2CC[C@@H](CNC(=O)Nc3ccc(OC(F)(F)F)cc3)CC2)nc2ccccc12 [compound 752],3 (Class 3: The value of percent of control at 10^−7 M was more than 60% or the value of IC50 was more than 200 nM.)
